Test results reported in paper PMC9870775, “Potent Dual Polymerase/Exonuclease Inhibitory Activities of Antioxidant Aminothiadiazoles Against the COVID-19 Omicron Virus: A Promising In Silico/In Vitro Repositioning Research Study” (Molecular Biotechnology, 2023).

Experiment: in vitro
Conditions: African green monkey

| Compound | CC50 |
| --- | --- |
| Nc1nnc(-c2cnc3cc(Cl)ccc3c2O)s1 [ChloViD2022, 3-(5-amino-1,3,4-thiadiazol-2-yl)-7-chloroquinolin-4-ol] | > 100 µM |
| Nc1nnc(CC(O)(Cc2nnc(N)s2)c2nnc(N)s2)s1 [CoViTris2022, 1,2,3-tris(5-amino-1,3,4-thiadiazol-2-yl)propan-2-ol] | > 100 µM |
| CC(C)C(=O)OC[C@H]1O[C@@H](n2ccc(NO)nc2=O)[C@H](O)[C@@H]1O [Molnupiravir, molnupiravir, reference compound] | > 100 µM |
| Nc1nnc([C@H](O)[C@@H](O)c2nnc(N)s2)s1 [Taroxaz-26, (1R,2R)-1,2-bis(5-amino-1,3,4-thiadiazol-2-yl)ethane-1,2-diol] | > 100 µM |
